# Source: ChEMBL document CHEMBL2417397, “Synthesis and biological properties of new N-Mannich bases derived from 3-methyl-3-phenyl- and 3,3-dimethyl-succinimides. Part V” (Eur J Med Chem, 2013)
# Active and inactive are the calls of the source. The rule behind the calls is not given here.
# Tests used:
# [1] = tested on: Rattus norvegicus; assay: Anticonvulsant activity in Sprague-Dawley albino rat assessed as protection against maximal electroshock-induced seizures at 30 mg/kg, po after 2 hrs; assay type: functional
# [2] = tested on: Vibrio harveyi; assay: Induction of mutagenecity in Vibrio harveyi BB7XM; assay type: organism-based; details: in vivo
# [3] = tested on: Vibrio harveyi; assay: Induction of mutagenecity in Vibrio harveyi BB7M; assay type: organism-based; details: in vivo
# [4] = tested on: Mus musculus; assay: Anticonvulsant activity in CF-1 albino mouse assessed as time of peak effect for protection against maximal electroshock-induced seizures at 30 to 300 mg/kg, ip; assay type: functional; details: dose mg/kg 30-300; route intraperitoneal
# [5] = Neurotoxicity in ip dosed CF-1 albino mouse at 30 to 300 mg/kg, ip after 0.5 to 4 hrs; assay type: toxicity, organism-based; parameters: route intraperitoneal; details: CF-1, mouse, in vivo
# [6] = tested on: Vibrio harveyi; assay: Antimutagenic activity in Vibrio harveyi BB7XM assessed as inhibition of 4-nitroquinoline-N-oxide-induced mutation; assay type: functional
# [7] = tested on: Mus musculus; assay: Anticonvulsant activity in CF-1 albino mouse assessed as protection against 6 Hz psychomotor seizure at 100 mg/kg, ip after 1 hr; assay type: functional; details: route intraperitoneal
# [8] = target: Sodium channel protein type 2 subunit alpha (Homo sapiens) (UniProt Q99250); assay: Inhibition of NaV1.2 channel (unknown origin) at 1 uM by electrophysiology
# Sequence of Sodium channel protein type 2 subunit alpha (Homo sapiens) (Q99250 whole entry, looked up): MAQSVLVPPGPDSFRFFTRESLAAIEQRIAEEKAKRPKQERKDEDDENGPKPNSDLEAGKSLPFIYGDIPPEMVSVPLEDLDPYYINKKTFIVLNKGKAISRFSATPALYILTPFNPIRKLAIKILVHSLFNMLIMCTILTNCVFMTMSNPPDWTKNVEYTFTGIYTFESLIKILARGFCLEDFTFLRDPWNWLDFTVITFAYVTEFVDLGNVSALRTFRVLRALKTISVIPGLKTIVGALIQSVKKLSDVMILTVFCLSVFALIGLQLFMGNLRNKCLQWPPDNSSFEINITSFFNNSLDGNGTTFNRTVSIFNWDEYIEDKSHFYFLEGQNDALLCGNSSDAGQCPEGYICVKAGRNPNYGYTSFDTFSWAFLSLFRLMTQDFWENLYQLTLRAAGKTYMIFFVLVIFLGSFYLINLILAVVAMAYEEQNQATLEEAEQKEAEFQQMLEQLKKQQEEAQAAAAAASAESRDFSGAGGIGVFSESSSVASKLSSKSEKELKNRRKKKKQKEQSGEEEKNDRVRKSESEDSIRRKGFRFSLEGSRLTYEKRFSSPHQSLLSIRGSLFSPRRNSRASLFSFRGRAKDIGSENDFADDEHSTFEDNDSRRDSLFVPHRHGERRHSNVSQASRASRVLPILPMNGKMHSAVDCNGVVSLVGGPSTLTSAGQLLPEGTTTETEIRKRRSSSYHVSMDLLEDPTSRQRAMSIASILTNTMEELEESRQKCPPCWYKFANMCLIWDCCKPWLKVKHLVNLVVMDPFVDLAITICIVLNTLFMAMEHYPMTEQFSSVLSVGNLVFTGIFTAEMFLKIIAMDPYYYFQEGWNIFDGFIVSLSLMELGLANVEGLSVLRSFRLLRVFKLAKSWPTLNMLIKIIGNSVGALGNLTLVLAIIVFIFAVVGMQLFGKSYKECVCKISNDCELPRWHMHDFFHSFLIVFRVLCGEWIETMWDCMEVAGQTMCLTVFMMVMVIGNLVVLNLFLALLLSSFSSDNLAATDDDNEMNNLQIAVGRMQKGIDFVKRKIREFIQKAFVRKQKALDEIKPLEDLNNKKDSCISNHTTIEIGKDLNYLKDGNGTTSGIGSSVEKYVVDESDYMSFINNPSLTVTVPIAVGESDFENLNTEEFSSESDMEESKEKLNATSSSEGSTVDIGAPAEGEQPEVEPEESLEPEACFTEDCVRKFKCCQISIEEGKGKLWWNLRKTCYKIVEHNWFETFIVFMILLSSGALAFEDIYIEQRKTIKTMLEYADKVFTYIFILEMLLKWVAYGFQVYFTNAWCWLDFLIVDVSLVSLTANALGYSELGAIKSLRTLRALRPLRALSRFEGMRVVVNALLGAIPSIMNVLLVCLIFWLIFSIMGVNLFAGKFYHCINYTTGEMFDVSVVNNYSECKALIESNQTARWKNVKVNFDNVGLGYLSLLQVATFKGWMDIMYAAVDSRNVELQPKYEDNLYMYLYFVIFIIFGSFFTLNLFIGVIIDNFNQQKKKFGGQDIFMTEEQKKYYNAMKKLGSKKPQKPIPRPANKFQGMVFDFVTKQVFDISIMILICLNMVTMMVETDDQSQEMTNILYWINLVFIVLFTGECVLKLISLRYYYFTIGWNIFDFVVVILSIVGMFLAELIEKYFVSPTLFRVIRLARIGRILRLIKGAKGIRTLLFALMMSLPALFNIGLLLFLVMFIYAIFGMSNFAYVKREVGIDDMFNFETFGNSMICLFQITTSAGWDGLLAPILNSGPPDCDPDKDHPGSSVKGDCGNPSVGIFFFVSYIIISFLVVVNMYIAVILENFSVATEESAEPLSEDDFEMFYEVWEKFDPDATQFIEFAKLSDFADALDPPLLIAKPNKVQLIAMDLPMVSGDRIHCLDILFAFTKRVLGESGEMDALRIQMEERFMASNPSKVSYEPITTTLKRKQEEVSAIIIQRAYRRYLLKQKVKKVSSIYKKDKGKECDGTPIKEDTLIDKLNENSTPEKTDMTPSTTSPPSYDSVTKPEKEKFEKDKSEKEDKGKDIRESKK
# [9] = tested on: Mus musculus; assay: Anticonvulsant activity in CF-1 albino mouse assessed as protection against 6 Hz psychomotor seizure at 100 mg/kg, ip after 0.25 to 4 hrs; assay type: functional; details: route intraperitoneal
# [10] = tested on: Vibrio harveyi; assay: Antimutagenic activity in Vibrio harveyi BB7 assessed as inhibition of 4-nitroquinoline-N-oxide-induced mutation; assay type: functional
# [11] = tested on: Mus musculus; assay: Anticonvulsant activity in CF-1 albino mouse assessed as protection against 6 Hz psychomotor seizure at 100 mg/kg, ip after 2 hrs; assay type: functional
# [12] = tested on: Vibrio harveyi; assay: Induction of mutagenecity in Vibrio harveyi BB7; assay type: organism-based; details: in vivo
# [13] = tested on: Mus musculus; assay: Anticonvulsant activity in ip dosed CF-1 albino mouse assessed as protection against maximal electroshock-induced seizures after 4 hrs; assay type: functional
# [14] = tested on: Rattus norvegicus; assay: Anticonvulsant activity in Sprague-Dawley albino rat assessed as protection against maximal electroshock-induced seizures at 30 mg/kg, po after 4 hrs; assay type: functional
# [15] = tested on: Rattus norvegicus; assay: Anticonvulsant activity in Sprague-Dawley albino rat assessed as time of peak effect for protection against maximal electroshock-induced seizures at 30 mg/kg, po; assay type: functional
# [16] = target: Sodium channel protein type 2 subunit alpha (Homo sapiens) (UniProt Q99250); assay: Inhibition of NaV1.2 channel (unknown origin) at 100 uM by electrophysiology
# [17] = tested on: Mus musculus; assay: Neurotoxicity in CF-1 albino mouse at 300 mg/kg, ip after 4 hrs by rotarod test; assay type: toxicity, organism-based; parameters: dose 300 mg/kg, route intraperitoneal; details: in vivo
# [18] = tested on: Vibrio harveyi; assay: Antimutagenic activity in Vibrio harveyi BB7M assessed as inhibition of 4-nitroquinoline-N-oxide-induced mutation; assay type: functional
# [19] = tested on: Rattus norvegicus; assay: Anticonvulsant activity in Sprague-Dawley albino rat assessed as protection against maximal electroshock-induced seizures at 30 mg/kg, po after 0.5 hrs; assay type: functional
# [20] = species: Mus musculus; assay: Protective index, ratio of TD50 for CF-1 albino mouse by rotarod test to ED50 for CF-1 albino mouse; assay type: functional
# [21] = Neurotoxicity in ip dosed CF-1 albino mouse after 0.5 hrs by rotarod test; assay type: toxicity, organism-based; details: CF-1, mouse, in vivo
# [22] = target: Sodium channel protein type 2 subunit alpha (Homo sapiens) (UniProt Q99250); assay: Inhibition of NaV1.2 channel (unknown origin) at 10 uM by electrophysiology
# [23] = tested on: Rattus norvegicus; assay: Anticonvulsant activity in Sprague-Dawley albino rat assessed as protection against maximal electroshock-induced seizures at 30 mg/kg, po after 0.25 hrs; assay type: functional
# [24] = tested on: Mus musculus; assay: Anticonvulsant activity in CF-1 albino mouse assessed as protection against 6 Hz psychomotor seizure at 100 mg/kg, ip after 0.25 hrs; assay type: functional
# [25] = Neurotoxicity in po dosed Sprague-Dawley albino rat at 30 mg/kg, po after 0.25 to 4 hrs by rotarod test; assay type: toxicity, organism-based; parameters: dose 30 mg/kg, route oral; details: in vivo
# [26] = target: Sodium channel protein type 2 subunit alpha (Homo sapiens) (UniProt Q99250); assay: Inhibition of NaV1.2 channel (unknown origin) at 0.1 uM by electrophysiology
# [27] = tested on: Vibrio harveyi; assay: Antimutagenic activity in Vibrio harveyi BB7X assessed as inhibition of 4-nitroquinoline-N-oxide-induced mutation; assay type: functional
# [28] = tested on: Mus musculus; assay: Anticonvulsant activity in CF-1 albino mouse assessed as protection against maximal electroshock-induced seizures at 300 mg/kg, ip after 0.5 hrs; assay type: functional, organism-based; parameters: dose 300 mg/kg
# [29] = tested on: Rattus norvegicus; assay: Anticonvulsant activity in po dosed Sprague-Dawley albino rat assessed as protection against maximal electroshock-induced seizures after 0.25 to 4 hrs; assay type: functional
# [30] = tested on: Rattus norvegicus; assay: Anticonvulsant activity in Sprague-Dawley albino rat assessed as protection against maximal electroshock-induced seizures at 30 mg/kg, po after 1 hr; assay type: functional
# [31] = tested on: Rattus norvegicus; assay: Neurotoxicity in Sprague-Dawley albino rat assessed as motor impairment at 30 mg/kg, po; assay type: toxicity, organism-based; parameters: dose 30 mg/kg, route oral; details: in vivo
# [32] = tested on: Mus musculus; assay: Anticonvulsant activity in CF-1 albino mouse assessed as protection against 6 Hz psychomotor seizure at 100 mg/kg, ip after 4 hrs; assay type: functional
# [33] = tested on: Mus musculus; assay: Anticonvulsant activity in CF-1 albino mouse assessed as protection against 6 Hz psychomotor seizure at 100 mg/kg, ip after 0.5 hrs; assay type: functional
# [34] = species: Rattus norvegicus; assay: Protective index, ratio of TD50 for Sprague-Dawley albino rat by rotarod test to ED50 for Sprague-Dawley albino rat; assay type: functional
# [35] = tested on: Mus musculus; assay: Anticonvulsant activity in ip dosed CF-1 albino mouse assessed as protection against maximal electroshock-induced seizures after 0.5 to 4 hrs; assay type: functional
# [36] = tested on: Vibrio harveyi; assay: Induction of mutagenecity in Vibrio harveyi BB7X; assay type: organism-based; details: in vivo
# [37] = species: Rattus norvegicus; assay: Ratio of phenytoin ED50 to compound ED50 for Sprague-Dawley albino rat; assay type: functional
# [38] = tested on: Mus musculus; assay: Neurotoxicity in CF-1 albino mouse at 300 mg/kg, ip after 0.5 hrs by rotarod test; assay type: toxicity, organism-based; parameters: dose 300 mg/kg, route intraperitoneal; details: in vivo
# [39] = Neurotoxicity in ip dosed CF-1 albino mouse after 4 hrs by rotarod test; assay type: toxicity, organism-based; details: CF-1, mouse, in vivo
Structure (SMILES),Activity [1],Activity [2],Activity [3],Time [4] [h],TD50 [5] [mg/kg],Activity [7] [%],inhibition [8] [%],Activity [12],MED50 [13] [mg/kg],Activity [14],Time [15] [h],inhibition [16] [%],Activity [19],Ratio TD50/ED50 [20],inhibition [22] [%],Activity [23],TD50 [25] [mg/kg],inhibition [26] [%],Activity [28],ED50 [29] [mg/kg],further results
CC1(c2ccccc2)CC(=O)N(CN2CCN(c3cccc(Cl)c3)CC2)C1=O (centres undefined),Active,Non-toxic,Non-toxic,6,496,50,7.76,Non-toxic,30,50%,2,86.9,25%,12.08,39.6,inactive,> 250,16.3,inactive,27.9,inhibition (INH) [6]: 57%; Activity [9]: 50%; inhibition (INH) [10]: 25%; Activity ([11]; route intraperitoneal): 50%; Activity [17]: Non-toxic; inhibition (INH) [18]: 61%; TD50 at 0.5 h [21]: 300 mg/kg; Activity [24]: inactive; inhibition (INH) [27]: 0%; Activity [30]: 25%; Activity [31]: Non-toxic; Activity ([32]; route intraperitoneal): 25%; Activity ([33]; route intraperitoneal): 25%; Ratio TD50/ED50 [34]: >8.95; ED50 [35]: 41.1 mg/kg; Activity [36]: Non-toxic
CC1(c2ccccc2)CC(=O)N(CN2CCN(c3ccc(Cl)c(Cl)c3)CC2)C1=O (centres undefined),50%,Toxic,Toxic,4,> 500,25,15.1,Non-toxic,30,Active,4,96.7,inactive,>13.41,58.6,inactive,168,3.08,inactive,15.1,Activity [9]: 50%; Activity [11]: inactive; Activity [17]: Non-toxic; TD50 at 0.5 h [21]: 300 mg/kg; Activity ([24]; route intraperitoneal): 25%; Activity [30]: inactive; Activity [31]: Non-toxic; Activity [32]: inactive; Activity [33]: inactive; Ratio TD50/ED50 [34]: 11.09; ED50 [35]: 37.3 mg/kg; Activity [36]: Non-toxic
CC1(c2ccccc2)CC(=O)N(CN2CCN(c3ccc(F)cc3)CC2)C1=O (centres undefined),75%,Non-toxic,Non-toxic,8,> 500,25,14.9,Non-toxic,100,75%,4,64,25%,4.16,26.8,25%,65.6,10.6,inactive,7.78,inhibition (INH) [6]: 49%; Ratio ED50 [37]: 3.5; Activity [38]: Non-toxic; TD50 at 4 h [39]: 300 mg/kg; inhibition (INH) [10]: 8%; Activity [11]: Active; inhibition (INH) [18]: 62%; Activity ([24]; route intraperitoneal): 50%; inhibition (INH) [27]: 0%; Activity [30]: 50%; Activity [31]: Non-toxic; Activity [32]: Active; Activity [33]: inactive; Ratio TD50/ED50 [34]: 8.43; ED50 [35]: 120 mg/kg; Activity [36]: Non-toxic
